Legend:
CREB = CREB Ser133 phosphorylation in liver after IP injection (histochemical and Western blot); assay type: in vivo; details: mice; intraperitoneal administration
TORC2 [1] = assay: TORC2 localization, Ser171 phosphorylation and promoter recruitment in liver after IP injection; assay type: in vivo; details: mice; IP administration
primary rat hepatocytes = assay: Glucose output from primary rat hepatocytes; assay type: cell-based; details: FSK/DEX
Procedure: FIG. 17C summarizes the effect of TORC on glucose output from primary rat hepatocytes in response to fasting and feeding signals. Cells were infected with TORC1, TORC2, or control GFP adenovirus and then treated with FSK plus dexamethasone (FSK/DEX) for four hours. The effect of insulin on glucose output is shown.
Rat primary hepatocytes were prepared from 200-300g of Sprague-Dawley rats by collagenase perfusion method as described previously (see Koo et al., 2004). 1×10^6 cells were plated in 6 well plates with medium 199 (Invitrogen, Carlsbad, Calif.) supplemented by 10% FBS, 10 units/ml penicillin, 10 μg/ml streptomycin, and 10 nM dexamethasone for 3-6 hours. After attachment, cells were infected with adenoviruses for 16 hours. Subsequently, cells were maintained in medium 199 without FBS and dexamethasone for 24 hours (for cDNA expression adenoviruses) or 48 hours (for RNAi adenoviruses) and […] forskolin or 100 nM glucagon for 2 hours unless noted otherwise. For experiments with cycloheximide, 10 μg/ml cycloheximide was added 30 minutes prior to the addition of 100 nM glucagon.
The ability of TORC2 to modulate gluconeogenic gene expression in hepatocytes exposed to cAMP agonist is consistent with the proposal that this coactivator modulates glucose output from the liver in response to fasting signals.

[2] = system: CREB-dependent EVX-1 promoter; assay: Transient transfection assay of HIT insulinoma cells with CREB-dependent EVX-1 luciferase reporter; assay type: cell-based, Hamster; details: for induction of CREB-dependent EVX-1 promoter: single stimulus (KCl 45 mM or forskolin), 6 hr
Procedure: Specifically, FIG. 1A summarizes the results of a transient transfection assay of HIT insulinoma cells transfected with the CREB-dependent EVX-1 luciferase reporter. Cells were treated with KCl (45 mM) and/or forskolin (10 nM) for six hours as indicated.
HEK293T, HIT or PC 12 cells were co-transfected with EVX or GAL4-LUC reporter plasmid, RSV-beta galactosidase and FLAG-TORC and/or SIK2 expression plasmids overnight using Lipofectamine 2000 (Invitrogen, Carlsbad, Calif.). DNA/lipid complexes were washed the next day and extracts prepared 24 h (293T and PC 12) or 40 hr (HITs) after transfection. […] Luciferase values were normalized to β-gal activity from co-transfected RSV-beta galactosidase activity in the corresponding sample.
Hamster insulinoma (HIT) cells were employed to test the relative effects of cAMP and calcium signals on CREB activity. Opening of voltage-sensitive L-type calcium channels in response to KC1 depolarization induced the CREB-dependent EVX-1 promoter (Conknight et al., 2003b) 5-fold in HIT cells, whereas addition of cAMP agonist stimulated the reporter 10-fold (see FIG. 1A). […] Consistent with the effects of calcium channel activity on the EVX-1 promoter, treatment with high glucose (20 mM) induced the expression of the endogenous CREB target gene NR4A2 5-fold in MIN6 insulinoma cells; and co-stimulation with glucose plus exendin-4, an analogue of the incretin hormone GLP-1, enhanced NR4A2 mRNA levels 35-fold (see FIG. 1B).

[3] = system: CREB:CBP complex (KID:KIX interaction); assay: Mammalian two-hybrid assay GAL4-KID / KIX-VP16 in HIT cells; assay type: cell-based, Hamster
GAL4-CREB = GAL4-CREB transient GAL4 luciferase reporter assay in HIT cells; assay type: cell-based, Hamster
TORC2 [4] = assay: EVX-1 reporter assay in HIT cells co-transfected with TORC2 expression vector; assay type: cell-based, Hamster
Procedure: Cells were treated with forskolin or KCl as indicated.

SIK1 = SIK1 mRNA levels in primary rat hepatocytes; assay type: cell-based
From the text: FIG. 18F summarizes the effect of FSK treatment on SIK1 mRNA levels in primary rat hepatocytes. Cells were infected with control (GFP) or dominant negative A-CREB adenovirus as indicated.
Based on the ability of CHX to disrupt TORC2 Ser171 phosphorylation, it was hypothesized that glucagon induces the expression of an inhibitory kinase during the attenuation period. […] Indeed, fasting induced SIK1 mRNA and protein levels in liver 4-fold relative to feeding conditions, whereas expression of other SIK family members (SIK2 and SIK3) was unaffected (see FIGS. 18D and 18E).

TORC:14-3-3 complexes = assay: Co-immunoprecipitation of TORC with endogenous 14-3-3 proteins; assay type: cell-based; details: basal and cAMP stimulated conditions; CsA 5 μM, OA 100 nM
From the text: FIGS. 5A-5D illustrate that 14-3-3 proteins associate with and repress TORC activity. Specifically, FIG. 5A, top panel, presents the results of a coimmunoprecipitation assay of Flag-TORC1 with endogenous 14-3-3 proteins in HEK293T cells. The effect of forskolin (F) treatment on the TORC 1: 14-3-3 association is shown. […] FIG. 5A, bottom left panel, is a Western blot assay of 14-3-3 proteins recovered from TORC or control 1 gG immunoprecipitates, illustrating the effect of forskolin treatment on endogenous TORC: 14-3-3 complexes in PC12 and HEK293T cells. Input levels of 14-3-3 and TORC proteins are shown. […] FIG. 5A, bottom right panel, illustrates the kinetics of TORC2 dissociation from endogenous 14-3-3 proteins in response to forskolin treatment of HEK293T cells. The levels of Flag-tagged TORC 2 (FLAG-T2) recovered from flag immunoprecipitates at each time point is shown below.
Rabbit pan-TORC (raised against 1-42 of human TORC1) and TORC2 selective rabbit polyclonal antiserum (raised against amino acids 454-607 of mouse TORC2) were generated as previously described (Conkright et al., 2003a)). Whole cell protein was extracted from cultured HEK293T, HIT, and MIN6 cells in Laemmli SDS sample buffer. Alternatively, whole cell protein was extracted from liver tissue or primary hepatocytes in SDS-urea-lysis buffer. […]

[5] = system: AMPK (AMP-activated protein kinase); assay: In vitro kinase assay of GST-TORC2 (161-181) with purified AMPK; assay type: biochemical; details: 300 μM AMP
From the text: Specifically, FIG. 20A illustrates the relative phosphorylation of wild-type or Ser171 Ala mutant recombinant GST-TORC2 (161-181) compared to GST only or optimal AMPK peptide substrate (SAMS) by activated AMPK in vitro. Addition of AMP to reactions is shown. The relative incorporation of γ^32P-ATP by each substrate is indicated.
Recombinant GST-TORC2 (161 -181) wild-type and Ser171 Ala proteins were phosphorylated in vitro with 100 mU purified AMPK (AMP-activated protein kinase) (Upstate Biotech) ±300 μM AMP according to the manufacturer's instructions. Following 15 mm. incubation with γ-^32P-ATP, relative ^32P incorporation was measured by scintillation. GST substrates and SAMS peptide were used at 3 μM in each reaction.
By contrast with SIK, ATP depletion appears to be uniquely sensed by AMPK, the founding member of this family (see Sakamoto et al., 2004; Lizcano et al., 2004; Bananjee et al., 2004; and Radzuik et al., 2003). The presence of a consensus AMPK phosphorylation site (Ser171) that modulates TORC2 activity in liver prompted examination of whether AMPK inhibits gluconeogenesis via phosphorylation of TORC2 in response to ATP depletion. Activated AMPK phosphorylated wild-type, but not Ser171Ala mutant GST-TORC2 (161-181) peptide in vitro (see FIG. 20A).

phospho (Ser133) CREB = assay: Western blot of phospho (Ser133) CREB levels in HIT cells; assay type: cell-based, Hamster; details: forskolin 10 μM or KCl 45 mM
Procedure: FIG. 1C is a Western blot assay of phospho (Ser133) CREB levels in HIT cells following treatment with KCl (45 mM), forskolin (10 μM), or both together for 30 minutes.
FIG. 9 illustrates the time course (in minutes) of CREB Ser133 phosphorylation in HIT cells following treatment with forskolin (10 μM) or KCl (45 mM). […] Immunoreactive bands correspond to phospho (Ser133) CREB (top) and phospho (Ser63) ATF1 (bottom).
Western blot analyses were conducted on whole cell, cytoplasmic and nuclear extracts with the following rabbit polyclonal antisera: phospho (Ser133) specific affinity purified 5322 and phospho (Ser133) specific antibody from Rockland Immunochemicals, Gilbertsville, Pa.), non-discriminating CREB (244), phosphor (Ser171) CREB, TORC2, pan-TORC, SIK1 and SIK2. 14-3-3 and Hsp90 antibodies were from Santa Cruz (Santa Cruz, Calif.). FLAG-M2 (Sigma) and GAL4 (Santa Cruz) monoclonal antibodies were used at 1:2000 and 1:1000 dilutions, respectively. For quantitative western blotting, goat anti-mouse-800 nm fluorophore conjugate to detect FLAG-M2 was used at 1:40,000 dilution according to manufacturer's instructions (Licor) prior to analysis using the Odyssey detection system. GST-pulldowns were performed as described (Asahara et al., 2001). […]

## insulin
CREB
  CREB Ser133 phosphorylation in liver: comparable effects on Ser133 phosphorylation
TORC2 [1]
  TORC2 phosphorylation at Ser171 in liver: highly phosphorylated at Ser171
  nuclear translocation of hepatic TORC2: did not stimulate nuclear entry of TORC2
Primary rat hepatocytes
  effect on glucose output from TORC over-expressing cells: disrupted

## C=C[C@@]1(C)CC(=O)[C@]2(O)[C@@]3(C)[C@@H](O)CCC(C)(C)[C@@H]3[C@H](O)[C@H](OC(C)=O)[C@@]2(C)O1 [forskolin, Forskolin]
[2]; co-stimulation with both forskolin and KCl
  stimulation of CREB activity (EVX-1 reporter): 80 fold
[2]
  induction of CREB-dependent EVX-1 promoter: 10 fold
[3]; 6 hours
  stimulation of KID:KIX interaction (GAL4 luciferase reporter): 20 fold
GAL4-CREB; KCl and forskolin in combination
  induction of GAL4 reporter activity via GAL4-CREB: 22 fold
GAL4-CREB; added individually
  induction of GAL4 reporter activity via GAL4-CREB: 5 fold
TORC2 [4]
  further potentiation of EVX-1 reporter in TORC2 over-expressing cells: 25 fold
SIK1
  induction of SIK1 mRNA levels: 20 fold

## C=C1[C@@H](O)[C@@H]2O[C@]3(CC[C@H](/C=C/[C@@H](C)[C@@H]4CC(C)=C[C@@]5(O[C@H](C[C@@](C)(O)C(=O)O)CC[C@H]5O)O4)O3)CC[C@H]2O[C@@H]1[C@@H](O)C[C@H](C)[C@H]1O[C@@]2(CCCCO2)CC[C@H]1C [okadaic acid]
TORC:14-3-3 complexes
  effect of phosphatase inhibitor on TORC:14-3-3 complex formation: had no effect on this interaction

## Nc1ncnc2c1ncn2[C@@H]1O[C@H](COP(=O)(O)O)[C@@H](O)[C@H]1O [AMP]
[5]
  phosphorylation of TORC by AMPK: induced

## [Cl-].[K+] [KCl]
[2]
  induction of CREB-dependent EVX-1 promoter: 5 fold
Phospho (Ser133) CREB
  levels of CREB Ser133 phosphorylation: increased levels of CREB Ser133 phosphorylation
[3]; KCl depolarization alone
  effect on KID:KIX interaction: had no effect
GAL4-CREB; added individually
  induction of GAL4 reporter activity via GAL4-CREB: 2 fold
GAL4-CREB; lacking bZIP domain (aa. 284-341)
  response of truncated GAL4-CREBΔbZIP polypeptide: no induction
TORC2 [4]
  further potentiation of EVX-1 reporter in TORC2 over-expressing cells: 30 fold

Source: US7485434B2, “Method for screening compounds for those that modulate transducers of regulated CREB activity” (The Salk Institute for Biological Studies, priority 2005, dated 2009)
